Test results as given in US10406335B2, “Drug delivery systems and methods for treatment of prostate” (TARIS Biomedical LLC, priority 2012, dated 2019).

Assays:
[1] = 14C gemcitabine tissue uptake after intra-urinary bladder perfusion or IV bolus in rats; format: in vivo, male Sprague Dawley rats
Procedure: The 6- and 24-hour continuous perfusions perfused 6.9 and 26.6 mg, respectively, of gemcitabine into the bladder. The single IV bolus included 5.0 mg of gemcitabine.
Blood (FIG. 8), urine, and tissue samples (e.g., bladder, prostate) (FIGS. 7 and 9) were collected and analyzed for gemcitabine content. The results are illustrated in FIGS. 7-9.

prostate cancer = conditions: Phase 2 clinical studies; cited from earlier work
[2] = Oxaliplatin or cisplatin tissue uptake after intra-urinary bladder perfusion or IV bolus in rats; conditions: 6- or 24-hour continuous bladder perfusion; FIG. 10 and FIG. 11

| gemcitabine levels in bladder tissue ([1]; 6- or 24-hour continuous bladder perfusion (6.9 and 26.6 mg), sustained urine concentrations, FIG. 9) | concentration of gemcitabine in the bladder ([1]; 24 hours after a clinically relevant IV dose (5.0 mg bolus), compared with bladder perfusion, FIG. 9) | SMILES | prostate gemcitabine tissue concentrations ([1]; after bladder perfusion, compared with IV administration, FIG. 7) | efficacy in prostate cancer patients (prostate cancer) | bladder concentrations [2] |
| --- | --- | --- | --- | --- | --- |
| at or exceed therapeutic concentrations | significantly lower concentration | Nc1ccn([C@@H]2O[C@H](CO)[C@@H](O)C2(F)F)c(=O)n1 [gemcitabine] | substantially higher than those observed after IV administration | limited efficacy | – |
| – | – | O=C1[O][Pt]2([NH][C@@H]3CCCC[C@H]3[NH]2)[O]C1=O [oxaliplatin] | – | – | achieving therapeutic bladder concentrations |
